Consider ten compounds from ChEMBL document CHEMBL5291721, “A preclinical secondary pharmacology resource illuminates target-adverse drug reaction associations of marketed drugs” (Nat Commun, 2023).

In assay [1] the target is T1, Neuropeptide Y receptor type 1 (Homo sapiens, UniProt P25929).
T1 sequence (P25929 whole entry): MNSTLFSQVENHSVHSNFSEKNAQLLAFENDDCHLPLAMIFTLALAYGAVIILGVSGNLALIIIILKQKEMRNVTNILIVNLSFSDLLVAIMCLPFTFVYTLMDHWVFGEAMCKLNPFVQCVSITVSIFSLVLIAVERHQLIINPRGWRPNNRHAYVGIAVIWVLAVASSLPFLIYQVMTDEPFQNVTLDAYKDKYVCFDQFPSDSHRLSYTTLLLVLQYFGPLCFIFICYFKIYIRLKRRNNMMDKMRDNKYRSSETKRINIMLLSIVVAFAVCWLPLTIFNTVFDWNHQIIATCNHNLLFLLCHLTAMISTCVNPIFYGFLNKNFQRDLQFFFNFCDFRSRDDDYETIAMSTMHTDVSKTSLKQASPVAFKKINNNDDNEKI

Assay [2] addresses T2, Alpha-2B adrenergic receptor (Homo sapiens, UniProt P18089).
T2 sequence (P18089 whole entry): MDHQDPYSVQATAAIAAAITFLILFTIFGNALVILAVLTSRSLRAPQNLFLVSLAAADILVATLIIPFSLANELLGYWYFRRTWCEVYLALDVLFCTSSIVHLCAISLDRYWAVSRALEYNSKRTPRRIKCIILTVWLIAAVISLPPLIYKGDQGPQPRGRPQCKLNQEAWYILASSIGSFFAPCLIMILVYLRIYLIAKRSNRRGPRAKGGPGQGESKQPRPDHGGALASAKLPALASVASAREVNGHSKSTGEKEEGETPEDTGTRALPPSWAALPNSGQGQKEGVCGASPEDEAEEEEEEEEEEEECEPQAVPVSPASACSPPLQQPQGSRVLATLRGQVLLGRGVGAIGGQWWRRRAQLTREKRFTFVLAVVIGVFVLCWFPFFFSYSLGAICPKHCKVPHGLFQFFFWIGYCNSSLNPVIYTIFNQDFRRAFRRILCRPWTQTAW

The target of assay [3] is Beta-1 adrenergic receptor (Homo sapiens, UniProt P08588). Format: functional.
Assay [4] addresses T3, 5-hydroxytryptamine receptor 2B (Homo sapiens, UniProt P41595). Format: functional, cell-based.
The target of assay [5] is Histamine H1 receptor (Homo sapiens, UniProt P35367).
Assay [6] has as its target Kappa-type opioid receptor (Homo sapiens, UniProt P41145).
Assay [7] has as its target Sodium-dependent serotonin transporter (Homo sapiens, UniProt P31645).
In assay [8] the target is T4, Alpha-2C adrenergic receptor (Homo sapiens, UniProt P18825).
T4 sequence (P18825 whole entry): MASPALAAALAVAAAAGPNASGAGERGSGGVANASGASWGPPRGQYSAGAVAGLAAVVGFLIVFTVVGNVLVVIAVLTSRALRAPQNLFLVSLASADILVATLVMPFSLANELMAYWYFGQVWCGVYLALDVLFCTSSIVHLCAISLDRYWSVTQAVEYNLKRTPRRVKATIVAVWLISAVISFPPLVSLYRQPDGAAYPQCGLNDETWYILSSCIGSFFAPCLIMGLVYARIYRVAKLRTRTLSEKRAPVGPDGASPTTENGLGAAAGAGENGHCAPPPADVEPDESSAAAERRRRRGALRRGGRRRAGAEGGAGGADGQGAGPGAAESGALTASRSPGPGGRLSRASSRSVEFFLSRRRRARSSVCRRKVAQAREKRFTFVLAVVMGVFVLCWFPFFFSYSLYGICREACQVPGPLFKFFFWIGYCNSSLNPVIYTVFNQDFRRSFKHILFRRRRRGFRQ
It counts as functional.

Assay [9] concerns the target cGMP-inhibited 3',5'-cyclic phosphodiesterase 3A (Homo sapiens, UniProt Q14432). It counts as functional.
The target in assay [10] is 5-hydroxytryptamine receptor 2A (Homo sapiens, UniProt P28223). It counts as functional, cell-based.
Assay [11] deals with Voltage-gated inwardly rectifying potassium channel KCNH2 (Homo sapiens, UniProt Q12809). Format: functional. The following applies: read-out: AC50.
For assay [12], the target named is T3, 5-hydroxytryptamine receptor 2B. It counts as functional, cell-based. The source holds these as a separate data set.
Assay [13] has as its target D(3) dopamine receptor (Homo sapiens, UniProt P35462).
In assay [14] the target is T5, Equilibrative nucleoside transporter 1 (Homo sapiens, UniProt Q99808).
T5 sequence (Q99808 whole entry): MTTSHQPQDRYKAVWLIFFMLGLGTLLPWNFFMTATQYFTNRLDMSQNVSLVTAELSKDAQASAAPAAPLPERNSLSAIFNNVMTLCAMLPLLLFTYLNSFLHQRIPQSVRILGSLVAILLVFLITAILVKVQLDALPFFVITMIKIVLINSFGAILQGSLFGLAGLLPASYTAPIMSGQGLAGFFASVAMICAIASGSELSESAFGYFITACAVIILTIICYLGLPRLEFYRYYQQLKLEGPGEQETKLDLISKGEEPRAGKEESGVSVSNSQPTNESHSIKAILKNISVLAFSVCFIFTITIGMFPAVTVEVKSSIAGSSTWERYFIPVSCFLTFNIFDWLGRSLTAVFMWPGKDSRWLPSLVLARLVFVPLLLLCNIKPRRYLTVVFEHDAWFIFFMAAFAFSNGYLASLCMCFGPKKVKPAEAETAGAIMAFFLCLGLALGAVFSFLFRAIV

A word on the AC50: it is the midpoint of the concentration-response curve, whichever way the signal moves.
Further: assay procedure not described here.

T3 sequence (P41595 whole entry): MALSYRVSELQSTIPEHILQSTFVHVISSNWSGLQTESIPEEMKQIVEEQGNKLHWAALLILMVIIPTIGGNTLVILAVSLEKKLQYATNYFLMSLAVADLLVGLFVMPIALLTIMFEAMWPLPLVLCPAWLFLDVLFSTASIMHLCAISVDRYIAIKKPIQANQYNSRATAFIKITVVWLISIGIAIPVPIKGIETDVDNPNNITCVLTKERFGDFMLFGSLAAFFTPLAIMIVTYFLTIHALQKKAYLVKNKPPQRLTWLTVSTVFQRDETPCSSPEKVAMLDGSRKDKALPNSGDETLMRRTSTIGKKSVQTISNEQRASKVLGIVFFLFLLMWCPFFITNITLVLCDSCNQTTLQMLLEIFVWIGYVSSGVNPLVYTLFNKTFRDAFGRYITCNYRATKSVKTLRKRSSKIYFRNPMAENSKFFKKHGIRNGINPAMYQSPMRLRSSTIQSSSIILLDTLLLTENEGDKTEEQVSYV
Sequence of Sodium-dependent serotonin transporter (P31645 whole entry): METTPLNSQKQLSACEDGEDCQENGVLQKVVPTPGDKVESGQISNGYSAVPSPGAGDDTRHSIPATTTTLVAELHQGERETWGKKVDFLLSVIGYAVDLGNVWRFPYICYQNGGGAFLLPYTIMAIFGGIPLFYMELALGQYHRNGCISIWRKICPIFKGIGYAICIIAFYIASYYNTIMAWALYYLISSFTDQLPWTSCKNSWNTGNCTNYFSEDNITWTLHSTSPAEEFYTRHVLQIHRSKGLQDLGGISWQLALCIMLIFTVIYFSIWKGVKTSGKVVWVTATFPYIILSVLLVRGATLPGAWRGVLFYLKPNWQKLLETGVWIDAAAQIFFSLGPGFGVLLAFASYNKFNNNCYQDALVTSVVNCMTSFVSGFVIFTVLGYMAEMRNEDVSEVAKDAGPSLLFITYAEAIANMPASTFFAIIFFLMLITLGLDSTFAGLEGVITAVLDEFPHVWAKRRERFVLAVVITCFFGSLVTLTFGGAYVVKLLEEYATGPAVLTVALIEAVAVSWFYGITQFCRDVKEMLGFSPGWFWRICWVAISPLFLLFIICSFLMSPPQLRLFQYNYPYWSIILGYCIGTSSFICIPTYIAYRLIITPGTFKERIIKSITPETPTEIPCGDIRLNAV
Sequence of Voltage-gated inwardly rectifying potassium channel KCNH2 (Q12809 whole entry): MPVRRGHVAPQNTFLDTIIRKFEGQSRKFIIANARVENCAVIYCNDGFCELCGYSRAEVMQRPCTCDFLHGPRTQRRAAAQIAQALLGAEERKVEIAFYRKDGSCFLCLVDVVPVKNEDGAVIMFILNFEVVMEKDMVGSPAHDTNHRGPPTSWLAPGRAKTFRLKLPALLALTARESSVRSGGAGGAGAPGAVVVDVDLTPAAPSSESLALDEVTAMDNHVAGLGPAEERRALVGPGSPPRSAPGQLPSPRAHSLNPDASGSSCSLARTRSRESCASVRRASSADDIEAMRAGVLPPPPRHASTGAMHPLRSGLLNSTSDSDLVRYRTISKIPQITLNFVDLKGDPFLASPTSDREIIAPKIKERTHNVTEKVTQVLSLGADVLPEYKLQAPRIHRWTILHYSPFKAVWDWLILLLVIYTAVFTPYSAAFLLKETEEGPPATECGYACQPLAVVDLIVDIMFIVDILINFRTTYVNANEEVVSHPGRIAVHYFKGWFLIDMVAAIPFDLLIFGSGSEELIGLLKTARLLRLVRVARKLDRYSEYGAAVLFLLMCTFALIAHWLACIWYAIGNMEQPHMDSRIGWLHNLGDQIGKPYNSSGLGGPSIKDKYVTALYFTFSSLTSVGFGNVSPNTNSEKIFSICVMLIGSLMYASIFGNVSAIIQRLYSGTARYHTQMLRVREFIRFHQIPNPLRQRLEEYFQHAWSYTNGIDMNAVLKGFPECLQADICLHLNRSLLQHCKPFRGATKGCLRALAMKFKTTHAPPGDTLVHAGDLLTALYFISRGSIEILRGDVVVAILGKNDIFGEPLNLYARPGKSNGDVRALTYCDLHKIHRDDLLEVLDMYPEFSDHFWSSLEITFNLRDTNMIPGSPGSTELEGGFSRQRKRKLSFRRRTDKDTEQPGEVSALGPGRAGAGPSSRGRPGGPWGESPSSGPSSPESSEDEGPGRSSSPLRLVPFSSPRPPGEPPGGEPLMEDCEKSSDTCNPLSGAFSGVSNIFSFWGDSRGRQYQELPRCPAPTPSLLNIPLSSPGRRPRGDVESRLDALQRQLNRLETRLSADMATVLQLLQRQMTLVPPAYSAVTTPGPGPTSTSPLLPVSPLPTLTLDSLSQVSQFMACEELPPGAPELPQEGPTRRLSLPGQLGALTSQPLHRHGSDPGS
Sequence of Kappa-type opioid receptor (P41145 whole entry): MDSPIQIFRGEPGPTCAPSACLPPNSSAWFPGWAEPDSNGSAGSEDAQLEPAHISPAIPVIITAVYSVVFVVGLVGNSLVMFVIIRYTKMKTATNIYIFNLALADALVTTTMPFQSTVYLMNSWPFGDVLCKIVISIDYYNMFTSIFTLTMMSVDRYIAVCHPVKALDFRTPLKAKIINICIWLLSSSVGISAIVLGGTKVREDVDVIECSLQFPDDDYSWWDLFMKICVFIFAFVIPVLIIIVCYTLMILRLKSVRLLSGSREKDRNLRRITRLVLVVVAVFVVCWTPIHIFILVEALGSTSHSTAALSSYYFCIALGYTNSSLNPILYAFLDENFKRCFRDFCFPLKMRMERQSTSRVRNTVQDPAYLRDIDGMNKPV
Sequence of 5-hydroxytryptamine receptor 2A (P28223 whole entry): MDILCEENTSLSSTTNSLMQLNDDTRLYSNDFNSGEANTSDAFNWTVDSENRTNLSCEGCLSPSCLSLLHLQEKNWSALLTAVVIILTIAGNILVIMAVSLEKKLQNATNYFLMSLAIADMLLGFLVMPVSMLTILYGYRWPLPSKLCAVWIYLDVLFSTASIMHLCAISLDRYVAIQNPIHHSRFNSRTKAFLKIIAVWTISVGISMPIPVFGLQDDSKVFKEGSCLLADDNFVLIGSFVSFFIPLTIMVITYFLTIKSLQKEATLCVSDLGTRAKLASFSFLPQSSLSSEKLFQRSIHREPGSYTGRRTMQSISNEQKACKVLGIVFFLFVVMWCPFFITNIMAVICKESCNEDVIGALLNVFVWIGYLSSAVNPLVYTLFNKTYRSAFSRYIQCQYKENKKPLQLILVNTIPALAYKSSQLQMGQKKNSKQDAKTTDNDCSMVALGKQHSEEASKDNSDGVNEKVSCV
Sequence of cGMP-inhibited 3',5'-cyclic phosphodiesterase 3A (Q14432 whole entry): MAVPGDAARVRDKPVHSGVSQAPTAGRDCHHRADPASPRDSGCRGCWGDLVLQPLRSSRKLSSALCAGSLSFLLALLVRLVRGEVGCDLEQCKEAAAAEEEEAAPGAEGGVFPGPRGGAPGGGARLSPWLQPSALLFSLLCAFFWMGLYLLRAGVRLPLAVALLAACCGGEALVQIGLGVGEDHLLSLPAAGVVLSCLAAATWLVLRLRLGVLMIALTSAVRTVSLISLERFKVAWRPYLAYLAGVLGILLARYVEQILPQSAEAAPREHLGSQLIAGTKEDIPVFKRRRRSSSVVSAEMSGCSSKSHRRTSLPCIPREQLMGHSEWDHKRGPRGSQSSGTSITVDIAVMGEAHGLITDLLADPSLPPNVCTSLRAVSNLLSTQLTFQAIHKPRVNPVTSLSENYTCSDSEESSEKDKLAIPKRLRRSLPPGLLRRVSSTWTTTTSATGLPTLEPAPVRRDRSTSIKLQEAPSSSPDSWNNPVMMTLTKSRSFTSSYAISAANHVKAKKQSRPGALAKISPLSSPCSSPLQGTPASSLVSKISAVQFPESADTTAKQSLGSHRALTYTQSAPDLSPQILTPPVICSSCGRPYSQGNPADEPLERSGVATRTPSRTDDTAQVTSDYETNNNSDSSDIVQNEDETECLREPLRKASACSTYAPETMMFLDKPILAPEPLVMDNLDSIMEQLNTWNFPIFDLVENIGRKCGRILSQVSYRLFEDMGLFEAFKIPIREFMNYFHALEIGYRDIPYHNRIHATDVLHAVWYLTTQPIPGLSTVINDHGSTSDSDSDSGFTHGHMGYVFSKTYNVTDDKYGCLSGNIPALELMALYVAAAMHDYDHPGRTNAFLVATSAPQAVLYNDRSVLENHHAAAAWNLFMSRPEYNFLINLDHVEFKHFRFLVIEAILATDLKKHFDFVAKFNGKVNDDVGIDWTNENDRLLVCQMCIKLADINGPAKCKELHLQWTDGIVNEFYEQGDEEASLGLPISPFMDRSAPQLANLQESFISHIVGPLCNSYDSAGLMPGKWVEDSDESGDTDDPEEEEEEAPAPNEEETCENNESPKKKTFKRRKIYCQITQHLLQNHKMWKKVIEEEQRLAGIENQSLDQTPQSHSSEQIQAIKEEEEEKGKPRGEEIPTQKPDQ
Sequence of D(3) dopamine receptor (P35462 whole entry): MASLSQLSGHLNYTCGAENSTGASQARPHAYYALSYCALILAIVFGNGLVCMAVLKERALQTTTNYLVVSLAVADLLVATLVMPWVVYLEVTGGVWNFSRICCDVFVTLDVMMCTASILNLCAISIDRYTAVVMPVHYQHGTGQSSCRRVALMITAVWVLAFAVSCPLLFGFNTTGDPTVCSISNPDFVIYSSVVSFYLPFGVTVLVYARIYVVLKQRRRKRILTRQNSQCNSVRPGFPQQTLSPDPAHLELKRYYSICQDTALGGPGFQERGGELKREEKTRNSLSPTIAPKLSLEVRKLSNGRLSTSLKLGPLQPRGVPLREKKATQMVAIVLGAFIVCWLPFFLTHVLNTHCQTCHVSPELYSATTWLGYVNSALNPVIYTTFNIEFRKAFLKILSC

On to `CCOC(=O)NNc1ccc(N(CC)CC(C)O)nn1` (stereo not given) [CADRALAZINE], for which the AC50 in assay [1], in assay [2], in assay [3], in assay [4], in assay [5] and in [6] was over 30 µM throughout. Further, the concentration at half-maximal activity (AC50) in [7], in assay [8], in assay [9], in assay [10], in assay [11] and in assay [12] was over 30 µM throughout. For the same compound, the AC50 in assay [13] and in assay [14] was over 30 µM in each case.
For `CCCC(C)(COC(N)=O)COC(=O)NC(C)C` (stereo not given) [CARISOPRODOL], the AC50 in [1] was over 30 µM; in assay [2], over 10 µM; in assay [3], over 10 µM; in assay [4], over 10 µM; in assay [5], over 10 µM; in [6] it was over 10 µM. The AC50 was over 10 µM in [7]; over 10 µM in assay [8]; over 30 µM in assay [9]; over 30 µM in [10]; over 30 µM in assay [11]; over 10 µM in [12]. For the same compound, the figures for the AC50 in [13] and in assay [14] were over 10 µM and over 30 µM, respectively.
With `CO[C@@]1(NC(=O)Cc2cccs2)C(=O)N2C(C(=O)O)=C(COC(N)=O)CS[C@@H]21` [CEFOXITIN], the half-maximal activity concentration (AC50) in assay [1], in assay [2], in assay [3], in assay [4], in assay [5] and in assay [6] was over 30 µM each time. Besides, the AC50 in assay [7], in assay [8], in assay [9], in [10], in assay [11] and in assay [12] was over 30 µM each time. The half-maximal activity concentration (AC50) in assay [13] and in [14] was over 30 µM in each case.
For the compound `CCN(CC)CCOC(=O)c1ccc(N)cc1Cl` [CHLOROPROCAINE], the concentration at half-maximal activity (AC50) in assay [1], in [2], in assay [3], in assay [4], in [5] and in assay [6] was over 30 µM throughout. Besides, the half-maximal activity concentration (AC50) is over 30 µM in assay [7]; over 30 µM in assay [8]; over 30 µM in assay [9]; over 30 µM in assay [10]; 11 µM in assay [11]; over 30 µM in [12]. The concentration at half-maximal activity (AC50) in assay [13] and in assay [14] was over 30 µM in each case.
As to `COCCOC(=O)C1=C(C)NC(C)=C(C(=O)OC/C=C/c2ccccc2)C1c1cccc([N+](=O)[O-])c1` (stereo not given) [CILNIDIPINE], the AC50 in [1], in assay [2], in assay [3], in assay [4], in assay [5] and in assay [6] was over 30 µM each time. In addition, the AC50 in assay [7], in assay [8], in assay [9], in assay [10], in [11] and in assay [12] was over 30 µM throughout. Also, the concentration at half-maximal activity (AC50) is over 30 µM in assay [13] and 26 µM in [14].
With `CCC(C)(Oc1ccc(C2(c3ccc(OC(C)(CC)C(=O)O)cc3)CCCCC2)cc1)C(=O)O` (stereo not given) [CLINOFIBRATE], the AC50 in assay [1], in assay [2], in assay [3], in assay [4], in assay [5] and in assay [6] was over 30 µM each time. In addition, the AC50 in [7], in assay [8], in assay [9], in assay [10], in assay [11] and in assay [12] was over 30 µM each time. Further, the AC50 in assay [13] and in assay [14] was over 30 µM throughout.
Consider `N[C@H](Cc1cc(I)c(Oc2cc(I)c(O)c(I)c2)c(I)c1)C(=O)O` [DEXTROTHYROXINE], for which the AC50 is over 30 µM in assay [1]; over 10 µM in assay [2]; over 10 µM in assay [3]; 26 µM in [4]; over 10 µM in assay [5]; over 10 µM in [6]. The AC50 in assay [7] was over 30 µM; in [8] it was over 10 µM; in [9], over 10 µM; in [10] it was over 30 µM; in assay [11], over 30 µM; in assay [12], over 10 µM. Further, the AC50 in assay [13] is over 10 µM; in assay [14], over 30 µM.
Regarding `CCCCC[C@H](O)/C=C/[C@H]1[C@H](O)CC(=O)[C@@H]1C/C=C\CCCC(=O)O` [DINOPROSTONE], the AC50 in assay [1] is over 30 µM; in assay [2] it was over 30 µM; in assay [3], over 30 µM; in assay [4], over 30 µM; in assay [5], over 30 µM; in [6] it was 22 µM. The AC50 in [7], in assay [8], in assay [9], in assay [10], in [11] and in assay [12] was over 30 µM each time. The AC50 in [13] and in [14] was over 30 µM throughout.
For the compound `CC(C)c1cc2c(cc1S(=O)(=O)O)[C@@]1(C)CCC[C@@](C)(C(=O)O)[C@@H]1CC2` [ECABET], the half-maximal activity concentration (AC50) was over 30 µM in [1]; over 30 µM in assay [2]; over 30 µM in assay [3]; over 30 µM in assay [4]; over 30 µM in assay [5]; 19 µM in assay [6]. Besides, the AC50 in [7], in [8], in [9], in assay [10], in assay [11] and in assay [12] was over 30 µM in each case. The AC50 in assay [13] and in [14] was over 30 µM in each case.
Regarding `COC(=O)N[C@@H](C)CNc1nccc(-c2cn(C(C)C)nc2-c2cc(Cl)cc(NS(C)(=O)=O)c2F)n1` [ENCORAFENIB], the AC50 was over 30 µM in assay [1]; over 30 µM in [2]; over 30 µM in assay [3]; 28 µM in assay [4]; over 30 µM in assay [5]; 13.7 µM in assay [6]. Moreover, the half-maximal activity concentration (AC50) in assay [7] was over 30 µM; in assay [8], over 30 µM; in assay [9], 25 µM; in [10], over 30 µM; in assay [11], over 30 µM; in assay [12] it was over 30 µM. In addition, the concentration at half-maximal activity (AC50) is over 30 µM in assay [13] and 25.9 µM in assay [14].
